Data as given in the supplement of paper PMC11451515.

Experiments:
Conditions in all cases: 48 h
NOMO1 [1] = experiment: cell viability relative to DMSO control; higher = less cytotoxic
In short: (§1)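 Viability is a per-plate percentage relative to DMSO wells, with cell-free wells as background. CellTiter-Glo One luminescence was read after 48 h at 37°C on 1536-well plates (5 μl) of NOMO1 or SEM (500 cells/well) or P12-Ichikawa (1000 cells/well) leukemia cells. The cells had been adapted for at least four passages in each medium and pin-dosed with library compounds in DMSO from 47 μM to 0.79 nM in 11 threefold steps.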

P12-Ichikawa [2] = experiment: as above
In short: as §1

SEM cells [3] = experiment: as above
In short: as §1

NOMO1 [4] = experiment: AUC of viability dose-response curve (% viability x log10 dose units); higher = less sensitive
In short: (§2)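 Seeding of medium-adapted leukemia cells was at 500 or 1000 cells/well in 1536-well plates, followed by 48 h at 37°C with library compounds in DMSO at 11 threefold doses from 47 μM to 0.79 nM. CellTiter-Glo One luminescence was normalised per plate to DMSO and cell-free wells and fitted as a four-parameter log-logistic function of log10 dose. Area under the curve was integrated by trapezoidal rule, with curves exceeding full viability scaled and curves failing quality control removed.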

P12-Ichikawa [5] = experiment: as above
In short: as §2

SEM cells [6] = experiment: as above
In short: as §2

CC(S)C(=O)NCC(=O)O (stereo not given)
cell viability [%]
Conditions | NOMO1 [1] | P12-Ichikawa [2] | SEM cells [3]
HPLM + 10% dialyzed FBS, 0.000781 µM | 116 | 106 | 40
HPLM + 10% dialyzed FBS, 0.00234 µM | 109 | 110 | 99
HPLM + 10% dialyzed FBS, 0.00702 µM | 110 | 118 | 59.5
HPLM + 10% dialyzed FBS, 0.0211 µM | 116 | 109 | 95
HPLM + 10% dialyzed FBS, 0.0632 µM | 116 | 119 | 105
HPLM + 10% dialyzed FBS, 0.19 µM | 123 | 101 | 101
HPLM + 10% dialyzed FBS, 0.569 µM | 108 | 129 | 92.8
HPLM + 10% dialyzed FBS, 1.71 µM | 114 | 117 | 103
HPLM + 10% dialyzed FBS, 5.12 µM | 111 | 118 | 90.6
HPLM + 10% dialyzed FBS, 15.4 µM | 97.9 | 113 | 113
HPLM + 10% dialyzed FBS, 46.1 µM | 89.4 | 106 | 95
RPMI 5 mM glucose + 10% FBS, 0.000781 µM | 120 | 109 | 33
RPMI 5 mM glucose + 10% FBS, 0.00234 µM | 112 | 112 | 102
RPMI 5 mM glucose + 10% FBS, 0.00702 µM | 109 | 108 | 50.5
RPMI 5 mM glucose + 10% FBS, 0.0211 µM | 107 | 119 | 87.8
RPMI 5 mM glucose + 10% FBS, 0.0632 µM | 107 | 116 | 114
RPMI 5 mM glucose + 10% FBS, 0.19 µM | 111 | 115 | 105
RPMI 5 mM glucose + 10% FBS, 0.569 µM | 107 | 114 | 101
RPMI 5 mM glucose + 10% FBS, 1.71 µM | 110 | 126 | 105
RPMI 5 mM glucose + 10% FBS, 5.12 µM | 114 | 115 | 84
RPMI 5 mM glucose + 10% FBS, 15.4 µM | 116 | 109 | 109
RPMI 5 mM glucose + 10% FBS, 46.1 µM | 107 | 106 | 108
RPMI 5 mM glucose + 10% dialyzed FBS, 0.000781 µM | 105 | 108 | 35.6
RPMI 5 mM glucose + 10% dialyzed FBS, 0.00234 µM | 113 | 105 | 92.5
RPMI 5 mM glucose + 10% dialyzed FBS, 0.00702 µM | 113 | 111 | 45
RPMI 5 mM glucose + 10% dialyzed FBS, 0.0211 µM | 107 | 118 | 101
RPMI 5 mM glucose + 10% dialyzed FBS, 0.0632 µM | 107 | 112 | 123
RPMI 5 mM glucose + 10% dialyzed FBS, 0.19 µM | 105 | 112 | 108
RPMI 5 mM glucose + 10% dialyzed FBS, 0.569 µM | 107 | 113 | 114
RPMI 5 mM glucose + 10% dialyzed FBS, 1.71 µM | 112 | 113 | 118
RPMI 5 mM glucose + 10% dialyzed FBS, 5.12 µM | 105 | 113 | 80.7
RPMI 5 mM glucose + 10% dialyzed FBS, 15.4 µM | 96.5 | 120 | 119
RPMI 5 mM glucose + 10% dialyzed FBS, 46.1 µM | 112 | 102 | 104

AUC of viability dose-response curve
Conditions | NOMO1 [4] | P12-Ichikawa [5] | SEM cells [6]
HPLM + 10% dialyzed FBS | 464 | 471 | 438
RPMI 5 mM glucose + 10% FBS | 440 | 476 | 432
RPMI 5 mM glucose + 10% dialyzed FBS | 469 | 472 | 417

Nc1nc(NCCNc2ncc(-n3ccnc3)c(-c3ccc(Cl)cc3Cl)n2)ccc1[N+](=O)[O-]
cell viability [%]
Conditions | NOMO1 [1] | P12-Ichikawa [2] | SEM cells [3]
HPLM + 10% dialyzed FBS, 0.000781 µM | – | 114 | 120
HPLM + 10% dialyzed FBS, 0.00234 µM | – | 119 | 134
HPLM + 10% dialyzed FBS, 0.00702 µM | – | 125 | 112
HPLM + 10% dialyzed FBS, 0.0211 µM | – | 123 | 135
HPLM + 10% dialyzed FBS, 0.0632 µM | – | 126 | 123
HPLM + 10% dialyzed FBS, 0.19 µM | – | 132 | 132
HPLM + 10% dialyzed FBS, 0.569 µM | – | 133 | 132
HPLM + 10% dialyzed FBS, 1.71 µM | – | 131 | 99.6
HPLM + 10% dialyzed FBS, 5.12 µM | – | 134 | 104
HPLM + 10% dialyzed FBS, 15.4 µM | – | 130 | 121
HPLM + 10% dialyzed FBS, 46.1 µM | – | 125 | 107
RPMI 5 mM glucose + 10% FBS, 0.000781 µM | 105 | – | –
RPMI 5 mM glucose + 10% FBS, 0.00234 µM | 124 | – | –
RPMI 5 mM glucose + 10% FBS, 0.00702 µM | 126 | – | –
RPMI 5 mM glucose + 10% FBS, 0.0211 µM | 128 | – | –
RPMI 5 mM glucose + 10% FBS, 0.0632 µM | 127 | – | –
RPMI 5 mM glucose + 10% FBS, 0.19 µM | 141 | – | –
RPMI 5 mM glucose + 10% FBS, 0.569 µM | 144 | – | –
RPMI 5 mM glucose + 10% FBS, 1.71 µM | 157 | – | –
RPMI 5 mM glucose + 10% FBS, 5.12 µM | 141 | – | –
RPMI 5 mM glucose + 10% FBS, 15.4 µM | 151 | – | –
RPMI 5 mM glucose + 10% FBS, 46.1 µM | 165 | – | –
RPMI 5 mM glucose + 10% dialyzed FBS, 0.000781 µM | 92.9 | – | 135
RPMI 5 mM glucose + 10% dialyzed FBS, 0.00234 µM | 128 | – | 124
RPMI 5 mM glucose + 10% dialyzed FBS, 0.00702 µM | 119 | – | 119
RPMI 5 mM glucose + 10% dialyzed FBS, 0.0211 µM | 136 | – | 129
RPMI 5 mM glucose + 10% dialyzed FBS, 0.0632 µM | 155 | – | 138
RPMI 5 mM glucose + 10% dialyzed FBS, 0.19 µM | 160 | – | 123
RPMI 5 mM glucose + 10% dialyzed FBS, 0.569 µM | 139 | – | 128
RPMI 5 mM glucose + 10% dialyzed FBS, 1.71 µM | 147 | – | 116
RPMI 5 mM glucose + 10% dialyzed FBS, 5.12 µM | 168 | – | 93.4
RPMI 5 mM glucose + 10% dialyzed FBS, 15.4 µM | 147 | – | 116
RPMI 5 mM glucose + 10% dialyzed FBS, 46.1 µM | 150 | – | 103

AUC of viability dose-response curve
Conditions | NOMO1 [4] | P12-Ichikawa [5] | SEM cells [6]
HPLM + 10% dialyzed FBS | 460 | 464 | 452
RPMI 5 mM glucose + 10% FBS | 412 | 447 | 446
RPMI 5 mM glucose + 10% dialyzed FBS | 442 | 466 | 450

C[N+]1(C)[C@@H]2CC(OC(=O)C(O)(c3cccs3)c3cccs3)C[C@H]1[C@@H]1O[C@@H]12 (stereo not given in full)
cell viability [%]
Conditions | NOMO1 [1] | P12-Ichikawa [2] | SEM cells [3]
HPLM + 10% dialyzed FBS, 0.000781 µM | 109 | 98.7 | 94.8
HPLM + 10% dialyzed FBS, 0.00234 µM | 113 | 105 | 95.5
HPLM + 10% dialyzed FBS, 0.00702 µM | 117 | 109 | 107
HPLM + 10% dialyzed FBS, 0.0211 µM | 126 | 106 | 102
HPLM + 10% dialyzed FBS, 0.0632 µM | 107 | 109 | 113
HPLM + 10% dialyzed FBS, 0.19 µM | 120 | 110 | 103
HPLM + 10% dialyzed FBS, 0.569 µM | 128 | 109 | 103
HPLM + 10% dialyzed FBS, 1.71 µM | 113 | 109 | 114
HPLM + 10% dialyzed FBS, 5.12 µM | 105 | 103 | 106
HPLM + 10% dialyzed FBS, 15.4 µM | 110 | 112 | 113
HPLM + 10% dialyzed FBS, 46.1 µM | 102 | 102 | 108
RPMI 5 mM glucose + 10% FBS, 0.000781 µM | 101 | 117 | 85.4
RPMI 5 mM glucose + 10% FBS, 0.00234 µM | 87.9 | 113 | 104
RPMI 5 mM glucose + 10% FBS, 0.00702 µM | 88.8 | 123 | 92.6
RPMI 5 mM glucose + 10% FBS, 0.0211 µM | 116 | 111 | 83
RPMI 5 mM glucose + 10% FBS, 0.0632 µM | 102 | 120 | 110
RPMI 5 mM glucose + 10% FBS, 0.19 µM | 100 | 126 | 96.3
RPMI 5 mM glucose + 10% FBS, 0.569 µM | 92.2 | 120 | 99.3
RPMI 5 mM glucose + 10% FBS, 1.71 µM | 87.8 | 116 | 103
RPMI 5 mM glucose + 10% FBS, 5.12 µM | 95.6 | 115 | 99.3
RPMI 5 mM glucose + 10% FBS, 15.4 µM | 94.4 | 111 | 114
RPMI 5 mM glucose + 10% FBS, 46.1 µM | 107 | 121 | 92.1
RPMI 5 mM glucose + 10% dialyzed FBS, 0.000781 µM | 90.3 | 105 | 90.9
RPMI 5 mM glucose + 10% dialyzed FBS, 0.00234 µM | 105 | 101 | 98
RPMI 5 mM glucose + 10% dialyzed FBS, 0.00702 µM | 104 | 100 | 105
RPMI 5 mM glucose + 10% dialyzed FBS, 0.0211 µM | 106 | 107 | 113
RPMI 5 mM glucose + 10% dialyzed FBS, 0.0632 µM | 115 | 105 | 119
RPMI 5 mM glucose + 10% dialyzed FBS, 0.19 µM | 94.9 | 111 | 119
RPMI 5 mM glucose + 10% dialyzed FBS, 0.569 µM | 106 | 109 | 111
RPMI 5 mM glucose + 10% dialyzed FBS, 1.71 µM | 97.3 | 109 | 139
RPMI 5 mM glucose + 10% dialyzed FBS, 5.12 µM | 99.4 | 111 | 108
RPMI 5 mM glucose + 10% dialyzed FBS, 15.4 µM | 99 | 113 | 121
RPMI 5 mM glucose + 10% dialyzed FBS, 46.1 µM | 99.9 | 101 | 101

AUC of viability dose-response curve
Conditions | NOMO1 [4] | P12-Ichikawa [5] | SEM cells [6]
HPLM + 10% dialyzed FBS | 464 | 471 | 462
RPMI 5 mM glucose + 10% FBS | 466 | 476 | 460
RPMI 5 mM glucose + 10% dialyzed FBS | 471 | 468 | 457
